Reference: article PMC5706701, “Development of a homogenous high-throughput assay for inositol hexakisphosphate kinase 1 activity” (PLoS ONE, 2017)
Structures can show the parent of a compound that is named as a salt.

Molecular target: T1, Human IP6K1 (Homo sapiens, UniProt Q92551)
T1 construct: GST (N, cleaved yes); made in house; host or cells: C43 E. coli, pGEX-6P-2
Test: IP6K1 high-throughput screen of the Sigma LOPAC (ADP-Glo Max, single point);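 further: final compound concentration 10µM in 5% DMSO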
Assay type: biochemical

[1] = LOPAC single-point screen, ADP-Glo Max raw signal per well
[2] = LOPAC single-point screen, Z-score against plate average and StDev
[3] = LOPAC single-point screen, Z-score from raw signal with plate average and StDev
[4] = LOPAC single-point screen, ADP-Glo Max luminescence raw signal per well
[5] = LOPAC single-point screen, Z-score from plate average and StDev
[6] = Sigma LOPAC single-point screen, ADP-Glo Max raw signal per well
[7] = Sigma LOPAC single-point screen, Z-score from plate average and StDev
[8] = LOPAC single-point screen, Z-score relative to plate average and StDev

T1 sequence (Q92551 whole entry): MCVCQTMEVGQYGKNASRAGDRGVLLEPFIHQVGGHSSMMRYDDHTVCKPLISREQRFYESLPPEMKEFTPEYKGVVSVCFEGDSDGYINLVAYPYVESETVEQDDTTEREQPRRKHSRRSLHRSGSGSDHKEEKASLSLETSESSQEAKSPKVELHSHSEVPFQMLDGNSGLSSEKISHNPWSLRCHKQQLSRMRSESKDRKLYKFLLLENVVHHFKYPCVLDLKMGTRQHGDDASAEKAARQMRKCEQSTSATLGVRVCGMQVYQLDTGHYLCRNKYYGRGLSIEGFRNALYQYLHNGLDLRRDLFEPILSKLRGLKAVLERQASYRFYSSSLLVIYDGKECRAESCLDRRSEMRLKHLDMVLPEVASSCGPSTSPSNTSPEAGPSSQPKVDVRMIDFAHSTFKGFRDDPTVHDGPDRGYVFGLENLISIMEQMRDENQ

Q: With COc1ccc(CCN)cc1O.Cl as the compound, how does the “Raw Signal” value [1] read?
A: 55159

Q: What about the Z-score [2] of the same compound?
A: -0.001632

Q: What does the source list for COc1ccc(C2CNC(=O)C2)cc1OC1CCCC1 (stereo not shown) [Rolipram]?
A: Raw Signal [1]: 57545; Z-score [2]: 0.2955

Q: Which “Raw Signal” value [1] does the source give for CC1COc2c(N3CCN(C)CC3)c(F)cc3c(=O)c(C(=O)O)cn1c23 (stereo not shown) [Ofloxacin] here?
A: 52269

Q: And the Z-score [3]?
A: -0.357

Q: How did the “Raw Signal” value [4] turn out when NC12CC3CC(CC(C3)C1)C2 [Amantadine hydrochloride] was run?
A: 68782

Q: What about the Z-score [5] of the same compound?
A: 1.914

Q: How did the “Raw Signal” value [1] turn out when CN(C)CCCCSC(=N)N.Cl.Cl [SKF 91488 dihydrochloride] was run?
A: 55411

Q: And the Z-score [3]?
A: -0.1191

Q: For COC1=C(OC)C(=O)c2ccccc2C1=O [2,3-Dimethoxy-1,4-naphthoquinone], which “Raw Signal” value [6] is on record?
A: 57485

Q: And the Z-score [7]?
A: 0.4708

Q: With Br.Br.N=C(N)SCCc1cccc(CCSC(=N)N)c1 [1,3-PBIT dihydrobromide] as the compound, how does the “Raw Signal” value [6] read?
A: 61855

Q: And the Z-score [7]?
A: 1.133

Q: CCC1(C)CC(=O)NC1=O (stereo not shown) [Ethosuximide] was tested. Which “Raw Signal” value [6] did it give?
A: 57090

Q: And the Z-score [7]?
A: 0.3905

Q: How did the “Raw Signal” value [6] turn out when OCCN1CCN(CCCN2c3ccccc3Sc3ccc(C(F)(F)F)cc32)CC1 [Fluphenazine dihydrochloride] was run?
A: 57313

Q: And the Z-score [7]?
A: 0.4358

Q: What does the source list for Cc1ncc(CNC(=O)N(CCCl)N=O)c(N)n1 [Nimustine hydrochloride]?
A: Raw Signal [1]: 54692; Z-score [2]: 0.05015

Q: How did the “Raw Signal” value [6] turn out when NC(=O)C1=CN([C@@H]2O[C@H](COP(=O)([O-])OP(=O)([O-])OC[C@H]3O[C@@H](n4cnc5c(N)ncnc54)[C@H](OP(=O)([O-])[O-])[C@@H]3O)[C@@H](O)[C@H]2O)C=CC1.[Na+].[Na+].[Na+].[Na+] [NADPH tetrasodium] was run?
A: 57869

Q: And the Z-score [7]?
A: 0.584

Q: How did the “Raw Signal” value [6] turn out when CNCC[C@H](Oc1ccc(C(F)(F)F)cc1)c1ccccc1.Cl [S-(+)-Fluoxetine hydrochloride] was run?
A: 58446

Q: What about the Z-score [7] of the same compound?
A: 0.6659

Q: For N[C@@H](Cn1cc(I)c(=O)[nH]c1=O)C(=O)O [S-5-Iodowillardiine], which “Raw Signal” value [1] is on record?
A: 55016

Q: And the Z-score [3]?
A: -0.1958

Q: For C/C(O)=C(\C#N)C(=O)Nc1cc(Br)ccc1Br [LFM-A13], which “Raw Signal” value [6] is on record?
A: 58610

Q: And the Z-score [7]?
A: 0.7085

Q: Which results are given for Cc1nc(N=Nc2ccc(S(=O)(=O)O)cc2S(=O)(=O)O)c(COP(=O)(O)O)c(C=O)c1O [PPADS]?
A: Raw Signal [1]: 55598; Z-score [2]: -0.08273

Q: Which results are given for N=C(N)N1CCc2ccccc2C1 [Debrisoquin sulfate]?
A: Raw Signal [4]: 61933; Z-score [5]: 1.3741

Q: With Cn1c(=O)c2c(nc(C=Cc3cccc(Cl)c3)n2C)n(C)c1=O [8-(3-Chlorostyryl)caffeine] as the compound, how does the “Raw Signal” value [1] read?
A: 56359

Q: And the Z-score [2]?
A: 0.2421

Q: For CN1[C@@H](CC(=O)c2ccccc2)CCC[C@H]1C[C@H](O)c1ccccc1.Cl [alpha-Lobeline hydrochloride], which “Raw Signal” value [1] is on record?
A: 53929

Q: And the Z-score [2]?
A: -0.07805

Q: What does the source list for CCn1cnc2c(Nc3cccc(Cl)c3)nc(N[C@@H]3CCCC[C@@H]3N)nc21.Cl [CGP-74514A hydrochloride]?
A: Raw Signal [1]: 58874; Z-score [2]: 0.1692

Q: What does the source list for CN1C2CCC1CC(OC(c1ccccc1)c1ccc(Cl)cc1)C2.Cl (stereo not shown)?
A: Raw Signal [4]: 50933; Z-score [8]: -0.8599

Q: COc1nc(C)nc(Cl)c1NC1=NCCN1.Cl [Moxonidine hydrochloride] was tested. Which “Raw Signal” value [1] did it give?
A: 52362

Q: And the Z-score [3]?
A: -0.3413

Q: Which “Raw Signal” value [1] does the source give for (-)-3-Methoxynaltrexone hydrochloride here?
A: 54969

Q: And the Z-score [2]?
A: 0.0967

Q: How did the “Raw Signal” value [4] turn out when COc1ccc2c(c1O)-c1cccc3c1[C@@H](C2)N(C)CC3.Cl [R(-)-Apocodeine hydrochloride] was run?
A: 50869

Q: What about the Z-score [8] of the same compound?
A: -0.8729

Q: With N#Cc1c(-c2ccccc2)no[n+]1[O-] [4-Phenyl-3-furoxancarbonitrile] as the compound, how does the “Raw Signal” value [1] read?
A: 53966

Q: What about the Z-score [2] of the same compound?
A: -0.07183

Q: Which results are given for CC(C)NP(=O)(NC(C)C)OP(=O)(NC(C)C)NC(C)C [Tetraisopropyl pyrophosphoramide]?
A: Raw Signal [1]: 57279; Z-score [2]: 0.2439

Q: Which “Raw Signal” value [1] does the source give for COc1cc(C(O)CN)ccc1O.Cl (racemic) [(±)-Normetanephrine hydrochloride] here?
A: 54540

Q: And the Z-score [2]?
A: 0.02461

Q: O=[N+]([O-])c1cccc2c(Br)n[nH]c12 [3-Bromo-7-nitroindazole] was tested. Which “Raw Signal” value [4] did it give?
A: 68484

Q: And the Z-score [5]?
A: 1.862

Q: How did the “Raw Signal” value [1] turn out when Cc1nc2ccccn2c(=O)c1CCN1CCC(C(=O)c2ccc(F)cc2)CC1 [Pirenperone] was run?
A: 53743

Q: What about the Z-score [3] of the same compound?
A: -0.4431

Q: Which results are given for CNC(=O)c1cc2c(cn1)[nH]c1ccccc12 [N-Methyl-beta-carboline-3-carboxamide]?
A: Raw Signal [6]: 57600; Z-score [7]: 0.4941

Q: How did the “Raw Signal” value [1] turn out when Cl.NCCc1ccc(S(=O)(=O)F)cc1 was run?
A: 58918

Q: What about the Z-score [2] of the same compound?
A: 0.177

Q: COc1ccc(CCNC[C@H](O)c2ccc(O)cc2)cc1OC [R(-)-Denopamine] was tested. Which “Raw Signal” value [6] did it give?
A: 58220

Q: What about the Z-score [7] of the same compound?
A: 0.4267

Q: What does the source list for COC(=O)c1cc2c(cn1)[nH]c1ccccc12 [Methyl beta-carboline-3-carboxylate]?
A: Raw Signal [1]: 53830; Z-score [3]: -0.2715

Q: Which results are given for Cc1nccc2c1[nH]c1ccccc12 [Harmane]?
A: Raw Signal [4]: 51802; Z-score [8]: -0.6834

Q: With Cn1cnc2c1c(=O)[nH]c(=O)n2C [Theobromine] as the compound, how does the “Raw Signal” value [4] read?
A: 52921

Q: What about the Z-score [8] of the same compound?
A: -0.6028

Q: For Cc1nc2n(c(=O)c1CCN1CCC(c3noc4cc(F)ccc34)CC1)CCCC2 [Risperidone], which “Raw Signal” value [4] is on record?
A: 53532

Q: What about the Z-score [8] of the same compound?
A: -0.4841

Q: What does the source list for CN1CC[C@@]23CCCC[C@@H]2[C@@H]1Cc1ccc(O)cc13.O=C(O)C(O)C(O)C(=O)O [Dextrorphan D-tartrate]?
A: Raw Signal [4]: 63036; Z-score [5]: 1.598

Q: For COc1cc2c(CCNC(C)=O)c[nH]c2cc1Cl [6-Chloromelatonin], which “Raw Signal” value [6] is on record?
A: 61765

Q: What about the Z-score [7] of the same compound?
A: 0.6784

Q: Which “Raw Signal” value [1] does the source give for C#CCN(C)[C@H](C)Cc1ccccc1.Cl [R-(-)-Deprenyl hydrochloride] here?
A: 53619

Q: And the Z-score [3]?
A: -0.1301

Q: Which results are given for C[N+]1(C)[C@@H]2C[C@@H](OC(=O)[C@H](CO)c3ccccc3)C[C@H]1[C@@H]1O[C@@H]12 [(-)-Scopolamine methyl bromide]?
A: Raw Signal [1]: 55432; Z-score [3]: -0.115

Q: How did the “Raw Signal” value [6] turn out when O=c1ccn(C2OC(COP(=O)(O)OP(=O)([O-])O)C(O)C2O)c(=O)[nH]1.[Na+] (stereo not shown) [Uridine 5 -diphosphate sodium] was run?
A: 58265

Q: What about the Z-score [7] of the same compound?
A: 0.4354

Q: N#C/C(=C\c1ccc(O)c(O)c1)C(N)=S [Tyrphostin 47] was tested. Which “Raw Signal” value [4] did it give?
A: 42103

Q: What about the Z-score [8] of the same compound?
A: -2.705

Q: What does the source list for JL-18?
A: Raw Signal [4]: 64215; Z-score [5]: 1.65

Q: How did the “Raw Signal” value [4] turn out when NCC1(CC(=O)O)CCCCC1 [Gabapentin] was run?
A: 51688

Q: And the Z-score [8]?
A: -0.7066

Q: What does the source list for Nc1ncn([C@@H]2O[C@H](CO)[C@@H](O)[C@H]2O)c(=O)n1 [5-azacytidine]?
A: Raw Signal [4]: 54885; Z-score [8]: -0.5333

Q: What does the source list for C=CCN1CC[C@]23c4c5ccc(O)c4O[C@@H]2/C(=N/N=C2\CC[C@@]4(O)C6Cc7ccc(O)c8c7[C@@]4(CCN6CC=C)[C@@H]2O8)CC[C@@]3(O)C1C5.Cl.Cl [Naloxonazine dihydrochloride]?
A: Raw Signal [4]: 51290; Z-score [8]: -0.5215

Q: Cl.Clc1cc(I)cc(Cl)c1NC1=NCCN1 [p-Iodoclonidine hydrochloride] was tested. Which “Raw Signal” value [1] did it give?
A: 52843

Q: And the Z-score [3]?
A: -0.2605

Q: Which results are given for CNC(=C[N+](=O)[O-])NCCSCc1ccc(CN(C)C)o1 [Ranitidine hydrochloride]?
A: Raw Signal [1]: 57122; Z-score [2]: 0.2134
